The structures appear in SMILES notation.

In this assay the target is T1, KCC2 (Homo sapiens, UniProt Q9H2X9).
T1 construct: expressed in transfected cells; host or cells: HEK293 cells electroporated (Maxcyte STX) with the pcDNA3.1 KCC2 plasmid
T1 sequence (Q9H2X9 1-1139): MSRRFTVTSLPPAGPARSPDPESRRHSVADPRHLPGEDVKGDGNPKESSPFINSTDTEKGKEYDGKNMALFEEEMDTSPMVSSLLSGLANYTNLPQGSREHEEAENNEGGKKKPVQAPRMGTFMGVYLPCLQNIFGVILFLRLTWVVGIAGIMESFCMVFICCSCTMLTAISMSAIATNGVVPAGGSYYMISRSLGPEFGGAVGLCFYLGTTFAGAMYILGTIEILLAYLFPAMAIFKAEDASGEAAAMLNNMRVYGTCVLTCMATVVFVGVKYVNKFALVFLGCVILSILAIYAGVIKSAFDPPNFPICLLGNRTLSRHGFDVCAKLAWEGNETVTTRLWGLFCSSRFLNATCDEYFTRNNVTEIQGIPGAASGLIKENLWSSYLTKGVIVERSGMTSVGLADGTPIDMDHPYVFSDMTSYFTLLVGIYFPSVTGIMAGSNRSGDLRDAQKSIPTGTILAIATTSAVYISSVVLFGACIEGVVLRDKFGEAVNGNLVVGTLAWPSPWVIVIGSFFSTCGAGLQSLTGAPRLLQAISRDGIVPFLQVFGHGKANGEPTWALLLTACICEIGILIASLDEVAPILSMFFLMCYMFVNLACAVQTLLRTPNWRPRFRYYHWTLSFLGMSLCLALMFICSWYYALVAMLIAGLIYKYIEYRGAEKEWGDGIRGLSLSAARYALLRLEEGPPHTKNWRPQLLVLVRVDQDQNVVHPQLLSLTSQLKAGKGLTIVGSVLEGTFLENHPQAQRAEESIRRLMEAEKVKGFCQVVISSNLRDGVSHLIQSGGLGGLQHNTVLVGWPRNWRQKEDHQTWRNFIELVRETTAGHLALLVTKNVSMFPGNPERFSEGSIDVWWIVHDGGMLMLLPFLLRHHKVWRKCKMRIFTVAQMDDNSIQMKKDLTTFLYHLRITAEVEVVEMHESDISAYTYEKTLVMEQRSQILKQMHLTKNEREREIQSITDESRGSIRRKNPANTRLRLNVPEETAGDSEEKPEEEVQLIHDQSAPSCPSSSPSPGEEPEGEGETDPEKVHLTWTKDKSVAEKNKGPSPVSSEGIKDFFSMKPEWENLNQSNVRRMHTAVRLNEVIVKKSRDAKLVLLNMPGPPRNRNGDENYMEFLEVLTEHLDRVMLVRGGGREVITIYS
Briefly: KCC2 thallium transport FLIPR-based assay (Tl+ influx in HEK293 cells expressing KCC2). The format is cell-based. The note with it: 90 min compound incubation at RT, thallium flux at 120 s used to determine EC50. An outline of the steps: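 Transient electroporation of codon-optimised human KCC2 into HEK293 cells, plated and cultured 48 h before dye loading (1 h, RT). Compounds run as a 12-point 1:2 series from 100 μM top, 90 min RT in buffer containing bumetanide; Tl+ flux read by FLIPR after stimulus addition, 1 s intervals over 120 s, with the 120 s signal used for EC50.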
In general, EC50 refers to the concentration that produces a half-maximal response. A higher EC50 goes with lower potency in that assay. For `C#CCCC1(CCOc2ccc(-c3ccc(Nc4nc(N5CCOC(C6CC6)C5)nc5c4CN(C(C)C)C5=O)cc3)cc2)N=N1` (stereo not shown) [Example 54, 4-[(4′-{2-[3-(but-3-yn-1-yl)-3H-diaziren-3-yl]ethoxy}[1,1′-biphenyl]-4-yl)amino]-2-(2-cyclopropyl-morpholin-4-yl)-6-(propan-2-yl)-5,6-dihydro-7H-pyrrolo[3,4-d]pyrimidin-7-one], the midpoint of the response, the EC50, lay at 0.253 µM. Take `CC(C)N1Cc2c(Nc3ccc(C4CCCCC4)cc3)nc(-n3ccnc3)nc2C1=O` [Example 79, 4-((4-cyclohexylphenyl)amino)-2-(1H-imidazol-1-yl)-6-isopropyl-5,6-dihydro-7H-pyrrolo[3,4-d]pyrimidin-7-one]: the response was half-maximal at 6.3 µM (EC50). The same measure for `C[C@@H]1CN(c2nc3c(c(Nc4ccc(C5CCCCC5)cc4)n2)COC3)CCO1` [Example 90, (R)—N-(4-cyclohexylphenyl)-2-(2-methylmorpholino)-5,7-dihydrofuro[3,4-d]pyrimidin-4-amine]: 1.71 µM; for `CC(C)N1Cc2c(Nc3ccc(C4CCCCC4)cc3)nc(N3CCO[C@H](C)C3)nc2C1=O` [Example 13, 4-[(4-cyclohexylphenyl)amino]-2-[(2R)-2-methylmorpholin-4-yl]-6-(propan-2-yl)-5,6-dihydro-7H-pyrrolo[3,4-d]pyrimidin-7-one]: 1.71 µM; for `CC(C)c1ccc(Nc2nc(N3CCO[C@@H](C)C3)nc3c2CN(C(C)C)C3=O)cc1` [Example 6, 2-[(2S)-2-methylmorpholin-4-yl]-6-(propan-2-yl)-4-{[4-(propan-2-yl)phenyl]amino}-5,6-dihydro-7H-pyrrolo[3,4-d]pyrimidin-7-one]: 6.82 µM. The figure for `CCC1CN(c2nc(Nc3ccc(C4CCCCC4)cc3)c3c(n2)C(=O)N(C(C)C)C3)CCO1` (stereo not shown) [Example 21, 4-[(4-cyclohexylphenyl)amino]-2-(2-ethylmorpholin-4-yl)-6-(propan-2-yl)-5,6-dihydro-7H-pyrrolo[3,4-d]pyrimidin-7-one] is 2.64 µM. Compound `C[C@@H]1CN(c2nc(Nc3ccc(C4CCCCC4)cc3)c3cc(C#N)cnc3n2)CCO1` [Example 101, (R)-4-((4-cyclohexylphenyl)amino)-2-(2-methylmorpholino)pyrido[2,3-d]pyrimidine-6-carbonitrile] showed an EC50 of 1.01 µM. For `CC(C)N1Cc2c(Nc3ccc(C4CCCCC4)cc3)nc(C3CCOCC3)nc2C1=O` [Example 78, 4-((4-cyclohexylphenyl)amino)-6-isopropyl-2-(tetrahydro-2H-pyran-4-yl)-5,6-dihydro-7H-pyrrolo[3,4-d]pyrimidin-7-one], it took 3.08 µM to reach a half-maximal effect (EC50). `CC(C)N1Cc2c(Nc3ccc(C4CCCCC4)cc3)nc(N3CCOC(C4CC4)C3)nc2C1=O` (stereo not shown) [Example 2, 4-((4-cyclohexylphenyl)amino)-2-(2-cyclopropylmorpholino)-6-isopropyl-5,6-dihydro-7H-pyrrolo[3,4-d]pyrimidin-7-one]: it took 0.672 µM to reach a half-maximal effect (EC50). In turn, `CCC(C)c1ccc(Nc2nc(N3CCO[C@H](C)C3)nc3c2CN(C(C)C)C3=O)cc1` (stereo partly drawn) [Example 56, 4-{[4-(butan-2-yl)phenyl]amino}-2-[(2R)-2-methylmorpholin-4-yl]-6-(propan-2-yl)-5,6-dihydro-7H-pyrrolo[3,4-d]pyrimidin-7-one] came in with a half-maximal effective concentration (EC50) of 3.28 µM.

On to `CCCCCCCOc1ccc(-c2ccc(Nc3nc(N4CCOC(C5CC5)C4)nc4c3CN(C(C)C)C4=O)cc2)cc1` (stereo not shown) [Example 53, 2-(2-cyclopropylmorpholin-4-yl)-4-{[4′-(heptyloxy)[1,1′-biphenyl]-4-yl]amino}-6-(propan-2-yl)-5,6-dihydro-7H-pyrrolo[3,4-d]pyrimidin-7-one], for which the EC50 turned out to be 0.215 µM. The figure for `CC(C)N1Cc2c(Nc3ccc(C4CCCCC4)cc3)nc(N3CCOC(C4CC4)C3)nc2C1=O` (single isomer, unassigned) [Example 14, 4-[(4-cyclohexylphenyl)amino]-2-(2-cyclopropylmorpholin-4-yl)-6-(propan-2-yl)-5,6-dihydro-7H-pyrrolo[3,4-d]pyrimidin-7-one] is 0.707 µM; for `CC(C)N1Cc2c(Nc3ccc(C4CCCCC4)cc3)nc(N3CCOC(CO)C3)nc2C1=O` (stereo not shown) [Example 31, 4-[(4-cyclohexylphenyl)amino]-2-[2-(hydroxymethyl)morpholin-4-yl]-6-(propan-2-yl)-5,6-dihydro-7H-pyrrolo[3,4-d]pyrimidin-7-one] it is 4.81 µM; for `CCN1Cc2c(Nc3ccc(C(C)C)cc3)nc(N3CCO[C@H](C)C3)nc2C1=O` [Example 67, 6-ethyl-2-[(2R)-2-methylmorpholin-4-yl]-4-{[4-(propan-2-yl)phenyl]amino}-5,6-dihydro-7H-pyrrolo[3,4-d]pyrimidin-7-one] it is 4.07 µM.

Take `CC(C)N1Cc2c(Nc3ccc(C4CCCCC4)cc3)nc(N3CCOC(CCO)C3)nc2C1=O` (stereo not shown) [Example 27, 4-[(4-cyclohexylphenyl)amino]-2-[2-(2-hydroxyethyl)morpholin-4-yl]-6-(propan-2-yl)-5,6-dihydro-7H-pyrrolo[3,4-d]pyrimidin-7-one]: the response was half-maximal at 3.58 µM (EC50). The same measure for `CC(C)N1Cc2c(Nc3ccc(OC4CCCC4)cc3)nc(N3CCO[C@H](C)C3)nc2C1=O` [Example 64, 4-{[4-(cyclopentyloxy)phenyl]amino}-2-[(2R)-2-methylmorpholin-4-yl]-6-(propan-2-yl)-5,6-dihydro-7H-pyrrolo[3,4-d]pyrimidin-7-one]: 5.76 µM; for `CC(=O)Nc1cnc2nc(N3CCO[C@H](C)C3)nc(Nc3ccc(C4CCCCC4)cc3)c2c1` [Example 107, (R)—N-(4-((4-cyclohexylphenyl)amino)-2-(2-methylmorpholino)pyrido[2,3-d]pyrimidin-6-yl)acetamide]: 6.3 µM; for `CC(C)c1ccc(Nc2nc(C3=CCOCC3)nc3c2CN(C(C)C)C3=O)cc1` [Example 50, 2-(3,6-dihydro-2H-pyran-4-yl)-6-(propan-2-yl)-4-{[4-(propan-2-yl)phenyl]amino}-5,6-dihydro-7H-pyrrolo[3,4-d]pyrimidin-7-one]: 7.98 µM. Turning to `COc1cnc2nc(N3CCO[C@H](C)C3)nc(Nc3ccc(C4CCCCC4)cc3)c2c1` [Example 106, (R)—N-(4-cyclohexylphenyl)-6-methoxy-2-(2-methylmorpholino) pyrido[2,3-d]pyrimidin-4-amine], the EC50 was 1.85 µM. The same measure for `CC(C)c1ccc(Nc2nc(N3CCO[C@H](C)C3)nc3c2CN(C(C)C)C3=O)cc1` [Example 7, 2-[(2R)-2-methylmorpholin-4-yl]-6-(propan-2-yl)-4-{[4-(propan-2-yl)phenyl]amino}-5,6-dihydro-7H-pyrrolo[3,4-d]pyrimidin-7-one]: 4.5 µM; for `Cc1cc(-c2nc(Nc3ccc(C4CCCCC4)cc3)c3c(n2)C(=O)N(C(C)C)C3)ccn1` [Example 44, 4-[(4-cyclohexylphenyl)amino]-2-(2-methylpyridin-4-yl)-6-(propan-2-yl)-5,6-dihydro-7H-pyrrolo[3,4-d]pyrimidin-7-one]: 0.901 µM. The same measure for `CC(C)N1Cc2c(Nc3ccc(C4CCCCC4)cc3)nc(-c3cnco3)nc2C1=O` [Example 48, 4-[(4-cyclohexylphenyl)amino]-2-(1,3-oxazol-5-yl)-6-(propan-2-yl)-5,6-dihydro-7H-pyrrolo[3,4-d]pyrimidin-7-one]: 6.3 µM.

In the case of `Cc1ccccc1-c1ccc(Nc2nc(C3=CCOCC3)nc3c2CN(C(C)C)C3=O)cc1` [Example 80, 2-(3,6-dihydro-2H-pyran-4-yl)-6-isopropyl-4-((2′-methyl-[1,1′-biphenyl]-4-yl)amino)-5,6-dihydro-7H-pyrrolo[3,4-d]pyrimidin-7-one], the midpoint of the response, the EC50, lay at 1.8 µM. The compound `CC(C)N1Cc2c(Nc3ccc(C(C)(C)C)cc3)nc(N3CCOCC3)nc2C1=O` [Example 87, 4-[(4-tert-butylphenyl)amino]-2-(morpholin-4-yl)-6-(propan-2-yl)-5,6-dihydro-7H-pyrrolo[3,4-d]pyrimidin-7-one] had a concentration for a half-maximal effect (EC50) of 8.18 µM. In the case of `CC(C)N1Cc2c(Nc3ccc(-c4ccc(OCCNC(=O)OC(C)(C)C)cc4)cc3)nc(N3CCOCC3)nc2C1=O` [Example 69, tert-Butyl (2-((4′-((6-isopropyl-2-morpholino-7-oxo-6,7-dihydro-5H-pyrrolo[3,4-d]pyrimidin-4-yl)amino)-[1,1′-biphenyl]-4-yl)oxy)ethyl)carbamate], the concentration for a half-maximal effect (EC50) worked out at 1.56 µM.

The values are drawn from patent US12617795B2, “Substituted 6,7-dihydro-5H-pyrrolo[3,4-d]pyrimidines, 5,7-dihydrofuro[3,4-d]pyrimidines, and pyrido[2,3-d]pyrimidines as KCC2 modulators” (Astrazeneca AB, priority 2020, dated 2026).
